{
  "source": "patent US20250186405A1",
  "about": "“Compound For Use In Treating Narcolepsy” (Alkermes, Inc., priority 2023, published 2025)",
  "key": {"[1]": {"test_system": "subjects with narcolepsy type-1 (NT1)", "assay": "Part 4 NT1: Maintenance of Wakefulness Test (MWT) sleep latency", "type": "in vivo, human", "conditions": "for change from baseline in average sleep latency on MWT vs placebo: 1, 3 and 8 mg", "method": "On Day −1, approximately 25 hours prior to study drug administration (on Day 1), baseline assessments for Maintenance of Wakefulness Test (MWT) began and were collected in a series of trials over approximately 10 hours.\nAt specified time points (Part 4), MWT assessments were performed and took up to 40 minutes to complete. The MWT is the standard objective measure of an individual's ability to remain awake during the daytime in a darkened, quiet environment and is commonly used to assess response to treatment. The MWT assessments were performed according to American Academy of Sleep Medicine (AASM) guidance. During the MWT trials, subjects were seated in a bed or reclining chair in a darkened room with their back and head supported such that their neck is not uncomfortably flexed or extended. Subjects are instructed to sit still and remain awake for as long as possible during each 40-minute trial. If the subject fell asleep during a trial, they were awakened, and the trial was terminated. […] Upon completion of the trial, the subject returned to a normal environment/ambiance and remained awake (and were awakened if they fall asleep) until the next trial.\nOnce Part 4 was completed, the EEG data recorded during the MWT, as well as the technician notes, were transferred to the EEG vendor for further analysis. Technician notes were also maintained for transfer to Sponsor at the end of the study. A precise assessment of sleep latency was conducted by an experienced sleep scorer from the EEG vendor, and spectral analysis was performed on the EEG data recorded during MWT to assess absolute and relative powers in standard frequency bands (i.e., qEEG). All raw data and analysis results were transferred to the Sponsor.\nFor the changes from baseline in average sleep latency across the first 4 sessions of the MWT, descriptive statistics were provided by dose level. Mixed model with repeated measure (MMRM) for the 4-period crossover design were conducted with the change from baseline as a dependent variable, and the dose level and the period as fixed factors. The differences in the least square means between each Compound A dose level and the placebo (each Compound A dose level—the placebo), and the 2-sided CIs were provided.\nEvaluation of Compound A effects on average sleep latency across 4 timepoints of MWT (2-, 4-, 6-, and 8-hours post-dose) from 4 patients with NT1 has been conducted at pre-dose baseline series on Day −1, and each of the crossovers (Days 1, 3, 5 and 7), testing placebo, and active dose levels of 1, 3, and 8 mg in the patients with NT1 compared to placebo.\nEvaluation of Compound A effects on average sleep latency across 4 timepoints of MWT (2-, 4-, 6-, and 8-hours post-dose) from 10 patients with NT1 (including the 4 patients described above in 4.19.1) has been conducted at pre-dose baseline series on Day −1, and each of the crossovers (Days 1, 3, 5 and 7), testing placebo, and active dose levels of 1, 3, and 8 mg in the patients with NT1 compared to placebo."}, "[2]": {"test_system": "non-sleep deprived healthy volunteers", "assay": "Part 1 SAD: quantitative EEG (beta band power) and KSS biomarkers", "type": "in vivo, human", "conditions": "single doses, resting wakeful state", "method": "On Day −1, approximately 25 hours prior to study drug administration (on Day 1), baseline assessments for qEEG began and were collected for approximately 12 hours.\nAt time points within Part 1 of the study, qEEG assessment was performed. The subject remained still in a seated or supine position during the EEG acquisition time points. Each EEG acquisition continued for a total of 10 minutes: initial 5 minutes with eyes closed followed by 5 minutes with eyes open looking at a fixation point.\nThe PD parameters in the SAD evaluation (e.g., changes from baseline in QTcF, power of qEEG frequency bands, KSS) were summarized using descriptive statistics for each time point by dose level.\nAs discussed above in Example sections 4.10.3.2, 4.13.4, and 4.15.1, pharmacodynamic parameters in the SAD evaluation (e.g., changes from baseline in QTcF, power of qEEG frequency bands, KSS) were measured in non-sleep deprived healthy volunteers. […] The dots indicate the average post-dose measurements at each timepoint and the shaded areas show the confidence intervals. The data points representing Compound A cluster in the area associated with both higher beta power and increased alertness relative to placebo, with little overlap between the two groups."}, "[3]": {"assay": "Oral PK of micronized Compound A, powder-in-capsule vs tablet, two particle sizes", "type": "in vivo, male Beagle dogs", "conditions": "male, Beagle, dog, plasma", "method": "A non-GLP study was conducted in male Beagle dogs to compare the Compound A plasma exposure of powder-in-capsule (PIC) versus tablet formulation after the administration of single oral doses of micronized Compound A. Two different particle sizes were tested with the following objectives: • 1. To compare the oral plasma exposure of micronized Compound A (12 micron Dv90 particle size) after the administration of 20 mg of Compound A powder-in-capsule vs 20 mg of Compound A in four tablets of 5 mg each. • 2. To compare the oral plasma exposure of 12 micron and 32 micron Dv90 particle size of 20 mg micronized Compound A administered in four tablets of 5 mg each. • 3. To evaluate the dose-linearity of Compound A by comparing the oral plasma exposure of Compound A following the oral administration of 5 mg (one tablet) versus 20 mg (four tablets) of Compound A.\nThe pharmacokinetic analysis of concentrations and concentration-time data are summarized in tabular form, below, using descriptive statistics. Concentration data were summarized according to nominal sampling times. Plasma concentrations below the lower limit of assay quantification (BLOQ) were not included in the computation of mean concentration values. Pharmacokinetic parameters for individual animals were estimated using the non-compartmental analysis (NCA) using Dotmatics Studies tool.\nThe absolute extravascular bioavailability (F %) were calculated using the following formula: F %= [(AUC0-∞(extravascular)×Dose(intravenous(IV)))/(AUC0-∞(intravenous(IV))×Dose(extravascular))]×100 Where the “extravascular” represents any of subcutaneous (SC), intraperitoneal (IP) or oral (PO) route of administration.\nThe F % is calculated for each subject in case the same animals were administered with both intravenous and extravascular dose, then the average is reported with the standard error; otherwise, F % is calculated using the mean values without reporting a standard deviation in case the subjects of intravenous and extravascular profiles are different. Pharmacokinetic parameters were summarized by dosing group, route of administration, formulation, etc. using descriptive statistics."}, "[4]": {"conditions": "1 mg, NT1, N = 9 (10-patient analysis, Table 13a)"}, "[5]": {"conditions": "3 mg, NT1, N = 9 (10-patient analysis, Table 13a)"}, "[6]": {"conditions": "8 mg, NT1, N = 10 (10-patient analysis, Table 13a)"}},
  "note": "Where two headings read alike, the source gives them in different places.",
  "data": [
    {"smiles": "CS(=O)(=O)N[C@H]1CCCN2C(=O)COc3ccccc3C3CCC(CC3)OCC12", "note": "(stereo partly drawn) [Compound A, N-[(4S,4aR,7α,10α)-1,2,3,4,4a,5,7,8,9,10,16,17-dodecahydro-17-oxo-7,10-ethanopyrido[1,2-d][1,7,4]benzodioxaazacyclotridecin-4-yl]methanesulfonamide]", "values": [
      {"measurement": "average sleep latency improvement on MWT", "setting": "[1]; 1 mg, 4 patients with NT1", "value": 19.5, "unit": "min"},
      {"measurement": "Change from Day −1 in Average Sleep Latency on the MWT, LSM difference vs placebo", "setting": "[1]; 1 mg, NT1, N = 4", "value": 19.47, "unit": "min"},
      {"measurement": "Change from Day −1 in Average Sleep Latency on the MWT, LSM", "setting": "[1]; 1 mg, NT1, N = 4, average of 2, 4, 6, 8 h post-dose", "value": 18.41, "unit": "min"},
      {"measurement": "Change from Day −1 in Average Sleep Latency on the MWT, LSM", "setting": "[1]; [4]", "value": 16.95, "unit": "min"},
      {"measurement": "Change from Day −1 in Average Sleep Latency on the MWT, LSM difference vs placebo", "setting": "[1]; [4]", "value": 18.38, "unit": "min"},
      {"measurement": "MWT by-timepoint effect", "setting": "[1]; 3 mg, 4 patients with NT1", "value": "maximum effect over 2, 4 and 6-hour timepoints, and meaningful effect at 8 hours"},
      {"measurement": "Change from Day −1 in Average Sleep Latency on the MWT, LSM difference vs placebo", "setting": "[1]; 3 mg, NT1, N = 4", "value": 31.16, "unit": "min"},
      {"measurement": "Change from Day −1 in Average Sleep Latency on the MWT, LSM", "setting": "[1]; 3 mg, NT1, N = 4, average of 2, 4, 6, 8 h post-dose", "value": 30.09, "unit": "min"},
      {"measurement": "Change from Day −1 in Average Sleep Latency on the MWT, LSM", "setting": "[1]; [5]", "value": 21.15, "unit": "min"},
      {"measurement": "Change from Day −1 in Average Sleep Latency on the MWT, LSM difference vs placebo", "setting": "[1]; [5]", "value": 22.57, "unit": "min"},
      {"measurement": "MWT effect at every timepoint (maximum score 40 minutes)", "setting": "[1]; 8 mg, 4 patients with NT1, including 10 hours post-dose", "value": 40, "unit": "min"},
      {"measurement": "Change from Day −1 in Average Sleep Latency on the MWT, LSM difference vs placebo", "setting": "[1]; 8 mg, NT1, N = 4", "value": 38.13, "unit": "min"},
      {"measurement": "Change from Day −1 in Average Sleep Latency on the MWT, LSM", "setting": "[1]; 8 mg, NT1, N = 4, average of 2, 4, 6, 8 h post-dose", "value": 37.06, "unit": "min"},
      {"measurement": "Change from Day −1 in Average Sleep Latency on the MWT, LSM", "setting": "[1]; [6]", "value": 32.55, "unit": "min"},
      {"measurement": "Change from Day −1 in Average Sleep Latency on the MWT, LSM difference vs placebo", "setting": "[1]; [6]", "value": 33.97, "unit": "min"},
      {"measurement": "change from baseline in average sleep latency on MWT vs placebo", "setting": "[1]; 4 patients with NT1, 2-8 hours post-dose", "value": "statistically significant improvement in sleep latency"},
      {"measurement": "change from baseline in average sleep latency on MWT vs placebo", "setting": "[1]; 10 patients with NT1, 2-8 hours post-dose", "value": "statistically significant improvement in sleep latency"},
      {"measurement": "qEEG beta band signal, change from baseline", "setting": "[2]", "value": "Dose-dependent increases in beta band signal were observed"},
      {"measurement": "bioavailability", "setting": "[3]; 5 mg, one 5 mg tablet, 12 micron Dv90, read-out: Oral bioavailability (F %)", "value": 55, "unit": "%"},
      {"measurement": "bioavailability", "setting": "[3]; 20 mg, 20 mg PIC and 4 tablets of 5 mg, 12 and 32 micron Dv90, read-out: F % (absolute oral bioavailability), range", "value": "26 to 29", "unit": "%"},
      {"measurement": "bioavailability", "setting": "[3]; 20 mg, four 5 mg tablets (20 mg), 12 micron Dv90, read-out: Oral bioavailability (F %)", "value": 29, "unit": "%"},
      {"measurement": "Tmax", "setting": "[3]; 20 mg PIC and 4 tablets of 5 mg, 12 and 32 micron Dv90", "value": "~3", "unit": "h"},
      {"measurement": "AUC(0-inf)", "setting": "[3]; 20 mg PIC and 4 tablets of 5 mg, 12 and 32 micron Dv90, read-out: AUC0-∞, range", "value": "1570 to 1730", "unit": "ng·h/mL"},
      {"measurement": "Cmax", "setting": "[3]; 20 mg PIC and 4 tablets of 5 mg, 12 and 32 micron Dv90, read-out: Cmax, range", "value": "230 to 270", "unit": "ng/mL"},
      {"measurement": "half-life", "setting": "[3]; 20 mg PIC and 4 tablets of 5 mg, 12 and 32 micron Dv90, read-out: terminal t1/2 (converted)", "value": "~3", "unit": "h"}
    ]}
  ]
}
